Results from BindingDB's records for doi:10.1016/j.bioorg.2017.01.017 (University of The Punjab, 2017).

These compounds were tested against Alpha-glucosidase MAL12 (Saccharomyces cerevisiae (strain ATCC 204508 / S288c), UniProt P53341) (assay: α-Glucosidase Inhibition Assay).
Sequence of Alpha-glucosidase MAL12 (P53341 whole entry): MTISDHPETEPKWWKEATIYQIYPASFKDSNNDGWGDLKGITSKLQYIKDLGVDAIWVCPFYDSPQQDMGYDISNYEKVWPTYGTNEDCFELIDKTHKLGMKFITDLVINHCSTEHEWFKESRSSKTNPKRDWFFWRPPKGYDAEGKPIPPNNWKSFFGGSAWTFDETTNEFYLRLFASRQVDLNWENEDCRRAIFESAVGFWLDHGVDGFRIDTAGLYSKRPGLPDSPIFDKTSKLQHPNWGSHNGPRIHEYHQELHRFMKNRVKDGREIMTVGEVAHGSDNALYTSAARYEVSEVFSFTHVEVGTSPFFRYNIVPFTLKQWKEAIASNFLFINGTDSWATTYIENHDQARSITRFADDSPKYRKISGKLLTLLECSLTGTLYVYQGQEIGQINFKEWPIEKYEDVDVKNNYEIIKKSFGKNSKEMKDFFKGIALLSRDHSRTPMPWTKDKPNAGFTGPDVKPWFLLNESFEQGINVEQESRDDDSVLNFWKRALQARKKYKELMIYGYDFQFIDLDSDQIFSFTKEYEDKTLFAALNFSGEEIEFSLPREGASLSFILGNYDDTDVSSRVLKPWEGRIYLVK
Procedure: Afterwards, 10 μL of 0.5 mM p-nitrophenyl-a-d-glucopyranoside (code No. N1377 fromSigma Inc) was added to instigate the reaction. Later 30 min incubation at 37 °C, yellow coloured p-nitrophenol was formed and the absorbance was again recorded at 400 nm to see the difference. These tests were performed in triplicates and suitable dilutions of samples were made for screening.

SMILES | IC50 [µM]
c1ccc(-c2ccc(-c3nn(-c4ccccc4)cc3-c3nc(-c4ccccc4)c(-c4ccccc4)[nH]3)cc2)cc1 [3-([1,1'-Biphenyl]-4-yl)-4-(4,5-diphenyl-1H-imidazol-2-yl)-1-phenyl-1H-pyrazole (2g)] | 17.5
O=c1oc2ccc(Br)cc2cc1-c1nn(-c2ccccc2)cc1-c1nc(-c2ccccc2)c(-c2ccccc2)[nH]1 [6-Bromo-3-(4-(4,5-diphenyl-1H-imidazol-2-yl)-1-phenyl-1Hpyrazol-3-yl)-2H-chromen 2-one (2k)] | 2.95
Cc1nn(-c2ccc([N+](=O)[O-])cc2)c(C)c1-c1nc(-c2ccccc2)c(-c2ccccc2)[nH]1 [4-(4,5-Diphenyl-1H-imidazol-2-yl)-3,5-dimethyl-1-(4-nitrophenyl)-1H-pyrazole (2i)] | 22
Clc1ccc(-c2nn(-c3ccccc3)cc2-c2nc(-c3ccccc3)c(-c3ccccc3)[nH]2)cc1 [3-(4-Chlorophenyl)-4-(4,5-diphenyl-1H-imidazol-2-yl)-1-phenyl-1H-pyrazole (2b)] | 13.2
O=[N+]([O-])c1ccc(-n2cc(-c3nc(-c4ccccc4)c(-c4ccccc4)[nH]3)c(-c3ccccc3)n2)cc1 [4-(4,5-Diphenyl-1H-imidazol-2-yl)-1-(4-nitrophenyl)-3-phenyl-1H-pyrazole (2h)] | 7.81
O=c1oc2ccccc2cc1-c1nn(-c2ccccc2)cc1-c1nc(-c2ccccc2)c(-c2ccccc2)[nH]1 [3-(4-(4,5-diphenyl-1H-imidazol-2-yl)-1-phenyl-1H-pyrazol-3-yl)-2H-chromen-2-one (2j)] | 2.78
COc1ccc(-c2nn(-c3ccccc3)cc2-c2nc(-c3ccccc3)c(-c3ccccc3)[nH]2)cc1 [4-(4,5-Diphenyl-1H-imidazol-2-yl)-3-(4-methoxyphenyl)-1-phenyl-1H-pyrazole (2e)] | 24
O=[N+]([O-])c1ccc(-c2nn(-c3ccccc3)cc2-c2nc(-c3ccccc3)c(-c3ccccc3)[nH]2)cc1 [4-(4,5-Diphenyl-1H-imidazol-2-yl)-3-(4-nitrophenyl)-1-phenyl-1H-pyrazole (2d)] | 20.7
O=[N+]([O-])c1cccc(-c2nn(-c3ccccc3)cc2-c2nc(-c3ccccc3)c(-c3ccccc3)[nH]2)c1 [4-(4,5-Diphenyl-1H-imidazol-2-yl)-3-(3-nitrophenyl)-1-phenyl-1H-pyrazole (2f)] | 12.8
c1ccc(-c2nn(-c3ccccc3)cc2-c2nc(-c3ccccc3)c(-c3ccccc3)[nH]2)cc1 [4-(4,5-Diphenyl-1H-imidazol-2-yl)-1,3-diphenyl-1H-pyrazole (2a)] | 22.2
Brc1ccc(-c2nn(-c3ccccc3)cc2-c2nc(-c3ccccc3)c(-c3ccccc3)[nH]2)cc1 [3-(4-Bromophenyl)-4-(4,5-diphenyl-1H-imidazol-2-yl)-1-phenyl-1H-pyrazole (2c)] | 12
